The text below walks through data of patent publication US12281104B2, “Process for the production of ethyl 3-amino-1-[(3R,4S)-4-cyanotetrahydropyran-3-yl]pyrazole-4-carboxylate through chiral separation of a racemic mixture” (Intervet Inc., priority 2019, dated 2025).

Values after ≈ are worked out from the molar mass of the structure shown. Read-outs that look alike come from different tables or passages of the source.

A short description of the data set: Solubility of Compound (V) in water and organic solvents. Type of data set: physicochemical. The note with it: for solubility: read-out: Concentration in pure solvents (solubility). The procedure:
Example 1 Solubility of Compound (V) in Organic Solvents
The solubility of Compound (V) in water and in a set of organic solvents was determined.

In the case of `CCOC(=O)c1cn([C@H]2COCC[C@@H]2C#N)nc1N` (racemic) [Compound (V), ethyl 3-amino-1-[(3R,4S)-4-cyanotetrahydropyran-3-yl]pyrazole-4-carboxylate and ethyl 3-amino-1-[(3S,4R)-4-cyanotetrahydropyran-3-yl]pyrazole-4-carboxylate], the Solubility in words result (acetonitrile) is listed as “highly soluble”. For the same compound, the solubility is over 200000 µg/mL (acetonitrile (pure solvent), organic solvent or mixture); 10000 µg/mL (≈ 37.8 mM) (ethanol (pure solvent), organic solvent or mixture, EtOH); under 5000 µg/mL (isopropanol (pure solvent), organic solvent or mixture, iPrOH); under 50000 µg/mL (methanol (pure solvent), organic solvent or mixture, MeOH); under 5000 µg/mL (water (pure solvent), water).
